The record followed here is patent publication US20100317607A1, “USE OF COMPOUNDS FOR PREPARING ANTI-TUBERCULOSIS AGENTS” (INFECTIOUS DISEASE RESEARCH INSTITUTE, priority 2007, published 2010).

In brackets after ≈: the same amount, converted by molar mass. Counter-ions that a name gives are not always drawn. A value given as a limit tells only on which side of the number the result lay.

One test relates to H37Rv strain of M. tuberculosis. The test is described as follows: Alamar Blue Susceptibility Test (MABA). Format: cell-based. Conditions: Mycobacterium tuberculosis, H37RV, read-out: MABA (TB growth inhibition, colourimetric assay). In general terms: The colour change of resazurin is a common sign of viable cells or microbes.
Take `Clc1ccc(CNc2nc(N3CCCCC3)nc3ccccc23)cn1` [Compound 194, N-((6-Chloropyridin-3-yl)methyl)-2-(piperidin-1-yl)quinazolin-4-amine hydrochloride]: the MIC was in the range of 10 to 50 µM.

Still in this test, the particulars now being: Mycobacterium tuberculosis; H37Rv strain of M. tuberculosis; Alamar Blue; read-out: MABA (TB growth inhibition, colourimetric assay).
As for `c1ccc(Nc2nc(N3CCCCC3)nc3ccccc23)cc1` [Compound 72, N-Phenyl-2-(piperidin-1-yl)quinazolin-4-amine hydrochloride], the MIC fell in the range of 50 to 128 µM.
As for `COC(=O)[C@H](Cc1ccccc1)Nc1nc(N2CCCCC2)nc2ccccc12` [Compound 176, (S)-Methyl 3-phenyl-2-(2-(piperidin-1-yl)quinazolin-4-ylamino)propanoate], the MIC is 50 to 128 µM (≈ 19.5 to 50 µg/mL).
The same measure, in the same setting: with `Clc1ccc(C2(Nc3nc(N4CCCCC4)nc4ccccc34)CC2)cc1` [Compound 141, N-(1-(4-Chlorophenyl)cyclopropyl)-2-(piperidin-1-yl)quinazolin-4-amine hydrochloride] the figure was 10 to 50 µM; with `CCOC(=O)CN1CCN(c2nc(NCc3ccccc3)c3ccccc3n2)CC1` [Compound 27, Ethyl 2-(4-(4-(benzylamino)quinazolin-2-yl)piperazin-1-yl)acetate], 50 to 128 µM (≈ 20.3 to 51.9 µg/mL).
Still for that read-out and setting: the same measure for `O=C(Nc1nc(NCc2ccccc2)c2ccccc2n1)c1ccccc1` [Compound 73, N-(4-(Benzylamino)quinazolin-2-yl)benzamide]: 50 to 128 µM (≈ 17.7 to 45.4 µg/mL); for `FC(F)(F)c1ccc(CNc2nc(N3CCOCC3)nc3ccccc23)cc1` [Compound 77, 2-Morpholino-N-(4-(trifluoromethyl)benzyl)quinazolin-4-amine]: 10 to 50 µM (≈ 3.88 to 19.4 µg/mL).
As to `FC(F)(F)Oc1ccc(CNc2nc(N3CCCCC3)nc3ccccc23)cc1` [Compound 162, 2-(Piperidin-1-yl)-N-(4-(trifluoromethoxy)benzyl)quinazolin-4-amine], the MIC was less than 10 µM.
Still for that read-out and setting: the same measure for `COc1ccc([C@@H](C)Nc2nc(N3CCCCC3)nc3ccccc23)cc1` [Compound 97, (R)—N-(1-(4-Methoxyphenyl)ethyl)-2-(piperidin-1-yl)quinazolin-4-amine]: 10 to 50 µM (≈ 3.62 to 18.1 µg/mL).
For `c1ccc(CCCNc2nc(N3CCCCC3)nc3ccccc23)cc1` [Compound 95, N-(3-Phenylpropyl)-2-(piperidin-1-yl)quinazolin-4-amine], the MIC is less than 10 µM.
Still for that read-out and setting: with `Fc1ccc(CNc2nc(N3CCC(F)(F)CC3)c3ccccc3n2)c(F)c1` [Compound 148, N-(2,4-Difluorobenzyl)-4-(4,4-difluoropiperidin-1-yl)quinazolin-2-amine] the figure was 10 to 50 µM (≈ 3.9 to 19.5 µg/mL).
On the same count and under the same terms, the same measure for `Fc1ccc(C2(Nc3nc(N4CCCCC4)nc4ccccc34)CC2)cc1` [Compound 152, N-(1-(4-Fluorophenyl)cyclopropyl)-2-(piperidin-1-yl)quinazolin-4-amine]: 10 to 50 µM (≈ 3.62 to 18.1 µg/mL); for `FC(F)(F)c1ccc(CNc2nc(N3CCCCC3)c3ccccc3n2)cc1` [Compound 109, 4-(Piperidin-1-yl)-N-(4-(trifluoromethyl)benzyl)quinazolin-2-amine hydrochloride]: 10 to 50 µM.
On the same count and under the same terms, the same measure for `COc1ccc(CNc2nc(NCc3ccccc3)c3ccccc3n2)cc1` [Compound 129, N^4-Benzyl-N^2-(4-methoxybenzyl)quinazoline-2,4-diamine hydrochloride]: 10 to 50 µM; for `c1ccc(C2(Nc3nc(N4CCCC4)nc4ccccc34)CCCCC2)cc1` [Compound 125, N-(1-Phenylcyclohexyl)-2-(pyrrolidin-1-yl)quinazolin-4-amine]: 50 to 128 µM (≈ 18.6 to 47.7 µg/mL); for `Fc1ccc(CNc2nc(N3CCC(F)(F)CC3)nc3cc(F)ccc23)cc1` [Compound 156, 2-(4,4-Difluoropiperidin-1-yl)-7-fluoro-N-(4-fluorobenzyl)quinazolin-4-amine]: 10 to 50 µM (≈ 3.9 to 19.5 µg/mL).
In the case of `FC(F)(F)c1ccc(CNc2nc(N3CCCCC3)nc3ccccc23)cn1` [Compound 196, 2-(Piperidin-1-yl)-N-((6-(trifluoromethyl)pyridin-3-yl)methyl)quinazolin-4-amine hydrochloride], the MIC fell in the range of 10 to 50 µM.
